Results on two compounds are retold here after patent US20060025449A1, “Use of N-substituted imino sugars for appetite suppression” (priority 2004, published 2006).

The subject of one assay is lean control mouse. Kind of assay: Single intracerebroventricular (ICV) injection, food intake and weight change after 24 hours. The class given is in vivo. As to conditions: 2 nmol ICV, 24 hours. On the procedure: To investigate a central anorexigenic mechanism for weight loss in mice treated with NB-DNJ, single intracerebro-ventricular (ICV) injections were performed. The mice were assessed for food intake and weight change. Mice were anesthetized with isofluorane (4%) delivered by a vaporiser. Upon achievement of a surgical plane of anaesthesia, the animal was transferred to and secured in a Kopf small animal ultra precise stereotaxic instrument (David Kopf Instruments, Tujunga, Calif., USA) fitted with rat ear bars, mouse adaptor and mouse anaesthesia mask. A small amount of lignocaine local anaesthetic gel was applied to the ear bars to reduce any post-operative discomfort. For the remainder of the procedure, anaesthesia was maintained with 2.5% isofluorane. Lacrilube (Allergan Ltd, High Wycombe, UK) was applied to the mouse's eyes and a subcutaneous injection of the non-steroidal anti-inflammatory drug, Rimadyl (Pfizer, Sandwich, Kent, UK) was given for post-operative analgesia. For ICV injections, a small scalpel incision was made along the midline of the scalp from above the eyes to the occiput. A small hole was drilled in the skull, 1 mm lateral and 0.34 mm posterior to Bregma. 1 μl solution was slowly infused into the lateral ventricle at a depth of 2.25 mm, via a glass needle pipette pulled to a thickness of less than 100 microns at the tip. Mice were injected with 2 nmol compound (NB-DNJ, NB-DGJ or 2-deoxy glucose) in isotonic saline vehicle which was injected into controls. The incision was then closed using VetBond acrylic suture fluid (3M Animal Care Products, St Paul, Minn., USA). The whole procedure from induction of anaesthesia to full recovery lasted less than seven minutes. Mice were allowed free access to a pre-weighed quantity of RM1 pellet diet with water provided ad libitum. 24 hours following ICV injection the mice and remaining diet were weighed. To confirm a central anorectic effect of NB-DNJ, 2 nmol NB-DNJ, NB-DGJ and 2 deoxyglucose were injected directly into the lateral cerebral ventricle of lean control mouse brain (approximately 100 μM final cerebro-ventricular concentration). Mice injected with both saline vehicle and NB-DGJ ate a normal quantity of pellet diet in the following 24 hours (FIG. 9), approximately 5% less in this experiment than that seen in control mice in FIG. 7 (not statistically significant). In contrast, NB-DNJ-injected mice ate 20% less (p<0.02 for both saline and NB-DGJ) and 2-deoxy-glucose injections caused a 10% increase in feeding. 2-deoxy-glucose is a mild appetite stimulant in the short-term. Tsutsui et al., Physiol Behav 31, 493-502. In contrast, NB-DGJ had no effect, as expected.

Another assay deals with control lean mice. Description: ICV mini-pump implants, long-term intracerebro-ventricular delivery. The class given is in vivo, mouse. As to conditions: ICV mini-pump 500 mM, first 24 hours. As to the method:
FIG. 11. Control lean mice (n=5 in each group) had icv minipumps (50 mM imino sugar) implanted. Body weight was the monitored at regular intervals over three weeks. See example 7 for further experimental details. The effect of long-term intracerebro-ventricular delivery of imino sugars was determined by the implantation of Alzet mini-osmotic pumps (model 2004, DURECT Corporation, CA, USA) together with the brain infusion kit II which features a high stability low profile cannula. The mini-pumps were loaded with 0.24 ml imino sugar or saline vehicle. The indwelling 28 gauge stainless steel cannula was cut to a length of 2.25 mm. Mice were anaesthetised as for the ICV injections and underwent similar surgical procedures throughout. After drilling a small hole in the cranium at the midline, 2 mm posterior to Bregma, the mini-pump was positioned subcutaneously in the animal's flank and the cannula was implanted. This position and depth ensured delivery to the third cerebral ventricle. The implant was secured to the cranium using VetBond acrylic suture fluid, which was also used to close the surgical wound. The whole procedure lasted less than 9 minutes and mice were fully conscious and recovered within three minutes. For concentration of imino sugar in mini-pumps see figure legends.

The subject of another assay is C57B1/6 mice. Description: Effect of imino sugars admixed with diet on growth of normal control mice. Conditions: 2400 mg/kg/day in diet. The class given is in vivo, mouse. On the procedure:
Control C57B1/6 and C57BL/6O1aHsd-Lep ob mice were obtained from Harlan, UK at five weeks of age. The mice were housed under standard non-sterile conditions and fed a diet of mouse chow pelleted or expanded ground RM1 diet (SDS Ltd, Witham, Essex) with water available ad libitum. For dietary treatment of the mice with NB-DNJ or NB-DGJ, the diet and compound were admixed thoroughly as dry solids, stored at room temperature and used within 7 days. Unless indicated otherwise, mice were treated with a dose of 2400 mg/kg body weight per day, assuming an intake of around 5 g diet/day. Mice were maintained on diet with or without compound for up to six months of age and were weighed at regular intervals during the course of the experiment (see figure legends for group sizes and further experimental details). To study the effect of compound on obese mice, three groups (n=5) of ob/ob mice were monitored from five weeks of age. One group acted as control and were fed ground RM1 diet. At 6 weeks of age, the second group was started on NB-DNJ in the diet, whilst the third group started drug treatment at 12 weeks of age. All mice were then monitored for up to six months of age. […] In the first week of treatment, mice with NB-DNJ in their diet lost about 10% of their total body mass. Over the course of the following weeks, their weight stabilises. By 5 weeks of treatment they weighed 25% less than the controls. They then started to gain weight. However, after 10 weeks they remained 20% less in mass when compared with the age and sex-matched control group.

Entries after “also recorded” stand apart in the source; their conditions may differ.

The compound `O=CC[C@@H](O)[C@H](O)[C@H](O)CO` [2-deoxy-glucose, 2-deoxyglucose] displayed an increase in feeding with lean control mouse of 10%.
As to `CCCCN1C[C@H](O)[C@@H](O)[C@@H](O)[C@H]1CO` [NB-DGJ], in the assay on control lean mice, the “effect on dietary intake” value was “no statistically significant effect” and the “effect on weight change” value is listed as “no statistically significant effect”. In addition, the “effect on food intake” value with lean control mouse is recorded as “no effect”. Moreover, the “ate less than control mice of FIG. 7” value in the assay with lean control mouse (not statistically significant) is given as “approximately 5%”. Besides, the “effect on growth / body weight” value in the assay on C57B1/6 mice is on record as “did not lose weight; also recorded: no discernible effect”.
